Experimental data as given in the supplement of paper PMC11061612.

Experiments:
Experiment in all cases: combination Emax (second highest fraction inhibited in the dose matrix, 72 h); higher = more inhibition; extreme values may be limits of the assay
[1] = test system: DB (B-Cell Non-Hodgkin's Lymphoma)
Outline: (§1)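 After 24 hours at 37°C and 5% CO2 in 1536-well plates, cells in DMEM/F12 or RPMI plus 10% FBS received two-drug dose matrices for 72 hours. Viability came from CellTiter-Glo 2.0 luminescence and was scaled as inhibition, anchored at 0 by vehicle wells and at 1 by blank wells. Combination Emax is taken as the second-highest inhibition in the matrix, and Bliss excess as the observed combination effect less EA + EB − EA·EB, with EA and EB the single-agent effects.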

[2] = test system: DSH1 (Bladder Carcinoma)
Outline: as §1

[3] = test system: NALM-6 (B-Lymphoblastic Leukemia)
Outline: as §1

[4] = test system: RH-1 (Ewing's Sarcoma)
Outline: as §1

[5] = test system: G-292-Clone-A141B1 (Osteosarcoma)
Outline: as §1

[6] = test system: JiyoyeP-2003 (Burkitt's Lymphoma)
Outline: as §1

[7] = test system: SUIT-2 (Pancreatic Carcinoma)
Outline: as §1

[8] = test system: KATOIII (Gastric Carcinoma)
Outline: as §1

[9] = test system: SW756 (Cervical Carcinoma)
Outline: as §1

[10] = test system: NCI-H2369 (Mesothelioma)
Outline: as §1

[11] = test system: HCC2157 (Breast Carcinoma)
Outline: as §1

[12] = test system: SW1783 (Low Grade Glioma)
Outline: as §1

[13] = test system: SK-N-FI (Neuroblastoma)
Outline: as §1

[14] = test system: KARPAS-620 (Plasma Cell Myeloma)
Outline: as §1

[15] = test system: MFH-ino (Other Solid Carcinomas)
Outline: as §1

[16] = test system: C3A (Hepatocellular Carcinoma)
Outline: as §1

[17] = test system: EM-2 (Chronic Myelogenous Leukemia)
Outline: as §1

[18] = test system: KARPAS-1106P (B-Cell Non-Hodgkin's Lymphoma)
Outline: as §1

[19] = test system: LU-99A (Non-Small Cell Lung Carcinoma)
Outline: as §1

[20] = test system: CFPAC-1 (Pancreatic Carcinoma)
Outline: as §1

Row | Compound | combination Emax [1] | combination Emax [2] | combination Emax [3] | combination Emax [4] | combination Emax [5] | combination Emax [6] | combination Emax [7] | combination Emax [8] | combination Emax [9] | combination Emax [10] | combination Emax [11] | combination Emax [12] | combination Emax [13] | combination Emax [14] | combination Emax [15] | combination Emax [16] | combination Emax [17] | combination Emax [18] | combination Emax [19] | combination Emax [20]
1 | CC1(C)CCC(CN2CCN(c3ccc(C(=O)NS(=O)(=O)c4ccc(NCC5CCOCC5)c([N+](=O)[O-])c4)c(Oc4cnc5[nH]ccc5c4)c3)CC2)=C(c2ccc(Cl)cc2)C1 [Venetoclax] + C[C@@H]1COCCN1C2=NC(=NC(=C2)C3(CC3)[S@](=N)(=O)C)C4=C5C=CNC5=NC=C4 [AZD6738] (first compound max 1 µM, 7x7, partner max 10 µM) | 0.983 | 0.659 | 0.994 | 0.959 | 0.344 | 0.954 | 0.471 | 0.462 | 0.325 | 0.233 | 0.877 | 0.503 | 0.766 | 0.996 | 0.5 | 0.452 | 0.943 | 0.688 | 0.619 | 0.554
2 | CC(=O)c1c(C)c2cnc(Nc3ccc(N4CCNCC4)cn3)nc2n(C2CCCC2)c1=O [Palbociclib] + Cc1c2c(nn1C)CSCc1cc(n(C)n1)CSc1cc(c3ccccc3c1)OCCCc1c(C(=O)O)n(C)c3c-2c(Cl)ccc13 [AZD5991] (first compound max 10 µM, 7x7, partner max 1 µM) | 1 | 0.523 | 0.846 | 0.853 | 0.161 | 0.588 | 0.445 | 0.406 | 0.29 | 0.199 | 1 | 0.159 | 0.557 | 1 | 0.382 | 0.592 | 0.484 | 0.897 | 0.346 | 0.375
3 | CC1(C)CCC(CN2CCN(c3ccc(C(=O)NS(=O)(=O)c4ccc(NCC5CCOCC5)c([N+](=O)[O-])c4)c(Oc4cnc5[nH]ccc5c4)c3)CC2)=C(c2ccc(Cl)cc2)C1 [Venetoclax] + C1CN(CCC1(C(=O)N[C@@H](CCO)C2=CC=C(C=C2)Cl)N)C3=NC=NC4=C3C=CN4 [Capivasertib] (first compound max 1 µM, 7x7, partner max 3 µM) | 0.941 | 0.416 | 0.848 | 0.213 | 0.273 | 0.591 | 0.129 | 0.254 | 0.195 | 0.134 | 0.903 | 0.342 | 0.302 | 1 | 0.258 | 0.17 | 0.338 | 0.492 | 0.312 | 0.305
4 | CN(C)CCCOc1ccc(-c2ccc3ncc4c(c3c2)n(C2CCOCC2)c(=O)n4C)cn1 [AZD0156] + C[C@@H]1COCCN1C2=NC(=NC(=C2)C3(CC3)[S@](=N)(=O)C)C4=C5C=CNC5=NC=C4 [AZD6738] (first compound max 1 µM, 7x7, partner max 10 µM) | 0.628 | 0.823 | 0.903 | 0.938 | 0.263 | 0.955 | 0.71 | 0.519 | 0.322 | 0.187 | 0.955 | 0.257 | 0.793 | 0.644 | 0.403 | 0.584 | 0.949 | 0.752 | 0.784 | 0.434
5 | CC1(C)CCC(CN2CCN(c3ccc(C(=O)NS(=O)(=O)c4ccc(NCC5CCOCC5)c([N+](=O)[O-])c4)c(Oc4cnc5[nH]ccc5c4)c3)CC2)=C(c2ccc(Cl)cc2)C1 [Venetoclax] + CCN(CCO)CCCOc1ccc2c(Nc3cc(CC(=O)Nc4cccc(F)c4)[nH]n3)ncnc2c1 [AZD2811] (first compound max 1 µM, 7x7, partner max 1 µM) | 0.965 | 0.271 | 0.97 | 0.951 | 0.235 | 0.382 | 0.187 | 0.17 | 0.158 | 0.173 | 0.762 | 0.333 | 0.198 | 1 | 0.191 | 0.228 | 0.864 | 0.46 | 0.299 | 0.259
6 | Cc1c2c(nn1C)CSCc1cc(n(C)n1)CSc1cc(c3ccccc3c1)OCCCc1c(C(=O)O)n(C)c3c-2c(Cl)ccc13 [AZD5991] + Cc1cc2ncnn2cc1Nc1ncc2c(n1)n(C1CCOCC1)c(=O)n2C [AZD7648] (first compound max 1 µM, 7x7, partner max 10 µM) | 0.995 | 0.67 | 0.471 | 0.605 | 0.267 | 0.784 | 0.179 | 0.178 | 0.196 | 0.17 | 0.984 | 0.256 | 0.414 | 1 | 0.348 | 0.248 | 0.446 | 0.939 | 0.414 | 0.259
7 | CN(CCO)CC[C@H](CSc1ccccc1)Nc1ccc(S(=O)(=O)NC(=O)c2ccc(N3CCC([C@@H](O)c4ccccc4-c4ccc(Cl)cc4)CC3)cc2)cc1S(=O)(=O)C(F)(F)F [AZD4320] + C1CN(CCC1(C(=O)N[C@@H](CCO)C2=CC=C(C=C2)Cl)N)C3=NC=NC4=C3C=CN4 [Capivasertib] (first compound max 1 µM, 7x7, partner max 3 µM) | 0.899 | 0.686 | 0.983 | 0.394 | 0.754 | 0.773 | 0.074 | 0.128 | 0.143 | 0.859 | 0.991 | 0.44 | 0.228 | 1 | 0.182 | 0.292 | 0.98 | 0.16 | 0.35 | 0.0708
8 | CC(=O)c1c(C)c2cnc(Nc3ccc(N4CCNCC4)cn3)nc2n(C2CCCC2)c1=O [Palbociclib] + Cn1cnc2c(F)c(Nc3ccc(Br)cc3Cl)c(C(=O)NOCCO)cc21 [Selumetinib] (first compound max 10 µM, 7x7, partner max 10 µM) | 0.785 | 0.479 | 0.876 | 0.228 | 0.12 | 0.587 | 0.452 | 0.465 | 0.343 | 0.144 | 0.394 | 0.0922 | 0.531 | 0.631 | 0.429 | 0.556 | 0.459 | 0.601 | 0.542 | 0.411
9 | Cn1cnc2c(F)c(Nc3ccc(Br)cc3Cl)c(C(=O)NOCCO)cc21 [Selumetinib] + CCN(CCO)CCCOc1ccc2c(Nc3cc(CC(=O)Nc4cccc(F)c4)[nH]n3)ncnc2c1 [AZD2811] (first compound max 10 µM, 7x7, partner max 1 µM) | 0.411 | 0.383 | 0.836 | 0.935 | 0.102 | 0.235 | 0.349 | 0.429 | 0.294 | 0.203 | 0.628 | 0.0665 | 0.455 | 0.87 | 0.273 | 0.494 | 0.88 | 0.297 | 0.453 | 0.292
10 | CN(CCO)CC[C@H](CSc1ccccc1)Nc1ccc(S(=O)(=O)NC(=O)c2ccc(N3CCC([C@@H](O)c4ccccc4-c4ccc(Cl)cc4)CC3)cc2)cc1S(=O)(=O)C(F)(F)F [AZD4320] + C=CCn1c(=O)c2cnc(Nc3ccc(N4CCN(C)CC4)cc3)nc2n1-c1cccc(C(C)(C)O)n1 [AZD1775] (first compound max 1 µM, partner max 1 µM) | 1 | 0.799 | 1 | 0.986 | 0.559 | 0.992 | 0.491 | 0.206 | 0.399 | 0.189 | 0.969 | 0.531 | 0.629 | 1 | 0.237 | 0.631 | 0.99 | 0.963 | 0.762 | 0.699
11 | COc1nnc2ccc(N3CCC(c4ccc(OCCN5CCN(C)C(=O)[C@H]5C)cc4)CC3)nn12 [AZD5153] + CC1(C)CCC(CN2CCN(c3ccc(C(=O)NS(=O)(=O)c4ccc(NCC5CCOCC5)c([N+](=O)[O-])c4)c(Oc4cnc5[nH]ccc5c4)c3)CC2)=C(c2ccc(Cl)cc2)C1 [Venetoclax] (first compound max 1 µM, 7x7, partner max 1 µM) | 0.991 | 0.623 | 0.993 | 0.334 | 0.256 | 0.833 | 0.371 | 0.337 | 0.315 | 0.327 | 1 | 0.28 | 0.629 | 0.927 | 0.415 | 0.453 | 0.918 | 0.761 | 0.456 | 0.416
12 | COc1nnc2ccc(N3CCC(c4ccc(OCCN5CCN(C)C(=O)[C@H]5C)cc4)CC3)nn12 [AZD5153] + Cc1c2c(nn1C)CSCc1cc(n(C)n1)CSc1cc(c3ccccc3c1)OCCCc1c(C(=O)O)n(C)c3c-2c(Cl)ccc13 [AZD5991] (first compound max 1 µM, 7x7, partner max 1 µM) | 1 | 1 | 0.904 | 0.937 | 0.387 | 0.918 | 0.462 | 0.324 | 0.367 | 0.337 | 1 | 0.336 | 0.722 | 1 | 0.489 | 0.559 | 0.988 | 1 | 0.807 | 0.419
